Results reported in PMC7710018, “Restoration of motor learning in a mouse model of Rett syndrome following long-term treatment with a novel small-molecule activator of TrkB” (Disease Models & Mechanisms, 2020).

Key:
[1] = tested on: 8 different CYP enzymes; assay: CYP inhibition (Cerep); type: in vitro ADME; conditions: 10µM
Protocol: (§1) To evaluate the relative binding specificity of LM22A-4 ([Massa et al., 2010]) and PTX-BD4-3, binding to a broad range of 55 pharmacologically relevant receptors, including numerous neurotransmitter and G-protein coupled receptors was assessed using standard radioligand competition binding assays (ExpressSProfile) performed by Cerep, Inc. (Seattle, WA, USA). In addition, ADME-Tox analysis was performed by Cerep, Inc. All experimental conditions are described on the Cerep website (www.cerep.fr).
(§2) Aqueous Human CYP inhibition (10µM) AMES hERG solubility hepatocyte DNA testing
(§3) (µM) metabolic mutagenesis
(§4) PTX‐BD4‐3 200 >60 negative negative negative
(§5) Table S2. Solubility, metabolism and toxicity screens for LM22A-4 […]
(§6) and PTX-BD4-3. […]
Both compounds were negative in 3 different assays of in vitro toxicity; inhibition of 8 different CYP enzymes at 10 µM, DNA mutagenesis in 4 different strains of Salmonella typhimurium at 5, 10, 50 and 100 µM and cardiac toxicity, measured by […] of hERG channels at 0.1, 1 and 10 µM, where >50% inhibition of the tail current indicates significant cardiac toxicity.
(§7) (also on this page, place not known: Disease Models & Mechanisms: doi:10.1242/dmm.044685: Supplementary information Disease Models & Mechanisms • Supplementary information)

[2] = tested on: 3T3-TrkB cells; assay: NIH-3T3 cell survival (ViaLight); type: cell-based, mouse; conditions: 72-96 h
Protocol: Fig. 2. PTX-BD4-3 promotes cell survival preferentially through TrkB. (A-D) Neurotrophin receptor-expressing NIH-3T3 cells were incubated in culture medium (CM) alone or in medium plus either the indicated neurotrophins (BDNF, NGF, NT-3) or PTX-BD4-3 or its parent compound LM22A-4 for 72-96 h, after which survival was measured using the ViaLight assay. […] Scale bar: 10 μm. (B) Survival dose-response curves for PTX-BD4-3 and LM22A-4 in 3T3-TrkB cells. ^§P≤0.001 compared to CM alone. (C) Representative images of 3T3-TrkA, 3T3-TrkC and 3T3-p75 cells grown in the presence of CM alone, CM+neurotrophin or CM+PTX-BD4-3. Scale bar: 10 μm. NGF, NT-3 and BDNF served as positive controls for 3T3-TrkA, 3T3-TrkC and 3T3-p75 cells, respectively. (D) PTX-BD4-3 (1000 nM) had no effect on survival of 3T3-TrkA, 3T3-TrkC or 3T3-p75 cells compared to medium alone. *P≤0.05, ***P≤0.001 compared to CM alone. For each determination in B and D, n=10-32 wells derived from four to five independent experiments. Statistical significance was determined by one-way ANOVA with Dunnett's post hoc multiple comparison test. (E,F) […] protein was extracted from human cementoblast-like cell (HCEM) cultures treated with either culture medium alone, BDNF, LM22A-4 or PTX-BD4-3, immunoprecipitated with anti-TrkB antibody and then probed sequentially on western blots with anti-Shc and anti-TrkB antibody. The ratio of Shc to TrkB in treated cultures was normalized and compared to control (CM alone) using Kruskal-Wallis ANOVA followed by Dunn's multiple comparisons test (*P≤0.05, ^§P≤0.001). n=13 independent experiments, and each protein sample was run on duplicate western blots and the normalized values averaged. RLUs, relative light units.
Mouse NIH-3T3 cells expressing TrkA (NIH-3T3-TrkA) were provided by Dr William Mobley (University of California at San Diego, San Diego, CA, USA), and NIH-3T3 cells expressing TrkB (NIH-3T3-TrkB) or TrkC (NIH-3T3-TrkC) were provided by Dr David Kaplan (University of Toronto, Toronto, ON, Canada). Cells were propagated in Dulbecco's modified Eagle medium (DMEM) supplemented with 10% fetal bovine serum (FBS; Invitrogen) and 200-400 µg/ml Geneticin. Cells were seeded into 24-well plates (30,000 cells/well) and cultured in medium consisting of 50% PBS and 50% DMEM without supplements. Following exposure to BDNF (20 ng/ml, 0.7 nM) or 10-1000 nM LM22A-4 or PTX-BD4-3 for 72-96 h, cells were suspended in 50 µl lysis buffer, transferred to white, opaque 96-well culture plates and survival was measured using the ViaLight Assay (Lonza Group, Rockland, ME, USA).

[3] = Metabolic stability (Cerep); type: in vitro ADME, human; conditions: 10 µM, 5 time points
Protocol: as §1, §2, §3, §4, §5, §6, §7

[4] = Body weight / tolerability on chronic intermittent dosing; type: in vivo; conditions: 8 weeks
Text: In light of evidence that deficits in BDNF expression and TrkB signaling contribute to neurological dysfunction in mouse models of RTT ([Katz, 2014]), we next examined whether or not chronic treatment of Mecp2 mutant mice with PTX-BD4-3 would ameliorate disease phenotypes. For these studies, we used heterozygous (Het) female Mecp2 mutants, which, unlike male null mice, model the somatic mosaicism for normal and mutant MeCP2 that characterizes the human disease ([Katz et al., 2012]). Animals were treated once every 3 days (5 mg/kg, i.p.), beginning at 16 weeks of age, and neurological phenotypes were assessed at various time points up to 8 weeks of dosing. All tests were performed 24 h after the last treatment. Phenotypic assessments included whole-body plethysmography to quantify apneic breathing, a core feature of respiratory dysfunction in RTT, as well as a motor test battery.
Figure S2. Repeated dosing with PTX-BD4-3 (5 mg/kg, q72 hrs) had no
effect on body weight in either Wt or Het mice.
Initial Week 2 Week 4 Week 6 Week 8
Body weight (g) Wt Saline Wt BD4‐3
Disease Models & Mechanisms: doi:10.1242/dmm.044685: Supplementary information
Disease Models & Mechanisms • Supplementary information […]

Compound	CYP inhibition [1]	survival of 3T3-TrkB cells ([2]; 1000 nM, representative images)	Human hepatocyte metabolic stability [3] [min]	survival of 3T3-TrkB cells ([2]; serum-free medium, ViaLight, compounds 10-1000 nM dose-response, BDNF 20 ng/ml)	tolerability of chronic intermittent dosing ([4]; 5 mg/kg i.p. q72 h)	body weight ([4]; Het mice, 5 mg/kg q72 h, vs saline-treated Het littermates)
O=C(NCCO)c1cc(C(=O)NCCO)cc(C(=O)NCCO)c1 [LM22A-4, N,N′,N′′-tris(2-hydroxyethyl)-1,3,5-benzenetricarboxamide, reference compound]	negative	support the survival	> 60			
COCCN(C)C(=O)c1cc(C(=O)N(C)CCOC)cc(C(=O)N(C)CCOC)c1 [PTX-BD4-3, benzene-1,3,5-tricarboxylic acid tris-[(2-methoxy-ethyl)-methyl-amide]]	negative	support the survival	> 60	promoted survival	well tolerated	unchanged
